What follows are compounds tested on NBD1 (assay: Aggregation analysis using differential static light scattering (DSLS), thermal stability of NBD1). Conditions: 100 μM compound; ΔTagg = Tagg minus average Tagg of DMSO control wells; NBD1 0.2 mg/ml.
Assay type: binding, Human
Method: Example 23. Aggregation Analysis Using Differential Static Light Scattering (DSLS)
Purified recombinant NBD1 was produced using previously described methods (A. Schmidt, J. L. Mendoza, P. J. Thomas (2011) Biochemical and Biophysical Approaches to Probe CFTR Structure (365-376) M. D. Amaral, K. Kunzelmann (eds.), Cystic Fibrosis, Methods in Molecular Biology 741, Springer Science+Business Media). The effect of test compounds on thermal stability of NBD1 was evaluated by differential static light scattering (DSLS) using the Harbinger Stargazer-384 instrument (Epiphyte Three, Toronto, Canada). Test compounds were dissolved and diluted to desired concentrations in 100% DMSO. The compounds or DMSO controls (100 nL) were stamped into wells of a […] low volume optical plate (Corning Inc., Corning, NY) using the Echo 555 acoustic liquid handler (Labcyte Inc., San Jose, CA).
NBD1 protein was diluted to 0.2 mg/ml in S200 buffer (50 mM Tris-HCl, 150 mM NaCl, 5 mM MgCl2, 2 mM ATP, 2 mM DTT, pH7.6) containing 1% glycerol. 10 μL of protein solution was aliquoted into the 384-well plate harboring the test compounds and 10 μL mineral oil was overlayed onto the protein solution, using the epMotion robotic liquid handler (Eppendorf North America, Hauppauge, NY). After placing into the Stargazer instrument, the plate was heated at 1° C. per minute to 70° C. Images were captured from 25° C. to 70° C. every 0.5° C. At the end of the experiment run, instrument software integrated image files and analyzed data automatically. A linear regression curve was generated for each well, representing the increase in light scattering over time. A temperature of aggregation (Tagg) was calculated based on the inflection point of the curve. To better compare data across experiments the average Tagg for DMSO control wells was calculated and subtracted from values for wells containing compounds to obtain a “ΔTagg” value. These ΔTagg values reflect stabilizing efficacy of the compounds.

Compound | DSLS NBD1/3D Human Stability delta-T (° C.) @ 100 (μM)
CN1CCc2[nH]c(-c3cc(Oc4c(F)cc5[nH]ccc5c4S(C)(=O)=O)ccc3F)nc2C1c1cccc(CC(O)CO)c1F (stereo not shown) [Example 21, 3-[2-fluoro-3-[2-[2-fluoro-5-[(6-fluoro-4-methylsulfonyl-1H-indol-5-yl)oxy]phenyl]-5-methyl-1,4,6,7-tetrahydroimidazo[4,5-c]pyridin-4-yl]phenyl]propane-1,2-diol] | A (T ≥ 8° C.)
CN1CCc2[nH]c(-c3cc(Oc4c(F)cc5[nH]ccc5c4S(C)(=O)=O)ccc3F)nc2C1c1ccc(CCC(=O)O)s1 (stereo not shown) [Example 19, 3-[5-[2-[2-fluoro-5-[(6-fluoro-4-methylsulfonyl-1H-indol-5-yl)oxy]phenyl]-5-methyl-1,4,6,7-tetrahydroimidazo[4,5-c]pyridin-4-yl]-2-thienyl]propanoic acid] | A (T ≥ 8° C.)
Cc1c(-c2cc(Oc3c(F)cc4[nH]ccc4c3F)ccc2F)nc2n1CCNC2c1cccc(CC(O)CO)c1F (stereo not shown) [Example 9, 3-[3-[2-[5-[(4,6-difluoro-1H-indol-5-yl)oxy]-2-fluoro-phenyl]-3-methyl-5,6,7,8-tetrahydroimidazo[1,2-a]pyrazin-8-yl]-2-fluoro-phenyl]propane-1,2-diol] | B (4-8° C.)
CCOC(=O)CCc1cccc(C2c3nc(-c4cc(Oc5c(F)cc6[nH]ccc6c5S(C)(=O)=O)ccc4F)[nH]c3CCN2CC(F)F)c1F (stereo not shown) [Example 15, ethyl 3-[3-[5-(2,2-difluoroethyl)-2-[2-fluoro-5-[(6-fluoro-4-methylsulfonyl-1H-indol-5-yl)oxy]phenyl]-1,4,6,7-tetrahydroimidazo[4,5-c]pyridin-4-yl]-2-fluoro-phenyl]propanoate] | C (≤4° C.)
O=C(O)CCc1cccc([C@@H]2NCCc3nc(-c4cc(Oc5c(F)cc6[nH]ccc6c5F)ccc4F)[nH]c32)c1F (single isomer, unassigned) [Example 4] | C (≤4° C.)
CNC(=O)CCc1cccc(C2c3nc(-c4cc(Oc5c(F)cc6[nH]ccc6c5S(C)(=O)=O)ccc4F)[nH]c3CCN2CC(F)F)c1F (stereo not shown) [Example 17, 3-[3-[5-(2,2-difluoroethyl)-2-[2-fluoro-5-[(6-fluoro-4-methylsulfonyl-1H-indol-5-yl)oxy]phenyl]-1,4,6,7-tetrahydroimidazo[4,5-c]pyridin-4-yl]-2-fluoro-phenyl]-N-methyl-propanamide] | B (4-8° C.)
CN1CCc2nc(-c3cc(Oc4c(F)cc5[nH]ccc5c4F)ccc3F)[nH]c2[C@H]1c1cccc(CCC(=O)O)c1F (single isomer, unassigned) [Example 5] | B (4-8° C.)
CN1CCc2[nH]c(-c3cc(Oc4c(F)cc5[nH]ccc5c4S(C)(=O)=O)ccc3F)nc2C1c1cccc(CCC(=O)O)c1F (stereo not shown) [Example 14, 3-[2-fluoro-3-[2-[2-fluoro-5-[(6-fluoro-4-methylsulfonyl-1H-indol-5-yl)oxy]phenyl]-5-methyl-1,4,6,7-tetrahydroimidazo[4,5-c]pyridin-4-yl]phenyl]propanoic acid] | A (T ≥ 8° C.)
O=C(O)Cc1cccc(C2OCCc3[nH]c(-c4cc(Oc5c(F)cc6[nH]ccc6c5F)ccc4F)nc32)c1 (stereo not shown) [Example 2, 2-(3-(2-(5-((4,6-difluoro-1H-indol-5-yl)oxy)-2-fluorophenyl)-1,4,6,7-tetrahydropyrano[3,4-d]imidazol-4-yl)phenyl)acetic acid] | B (4-8° C.)
CCOC(=O)CCc1ccc(C2c3nc(-c4cc(Oc5c(F)cc6[nH]ccc6c5S(C)(=O)=O)ccc4F)[nH]c3CCN2C)s1 (stereo not shown) [Example 18, ethyl 3-[5-[2-[2-fluoro-5-[(6-fluoro-4-methylsulfonyl-1H-indol-5-yl)oxy]phenyl]-5-methyl-1,4,6,7-tetrahydroimidazo[4,5-c]pyridin-4-yl]-2-thienyl]propanoate] | B (4-8° C.)
CN1CCc2[nH]c(-c3cc(Oc4c(F)cc5[nH]ccc5c4F)ccc3F)nc2C1c1cccc(CC(O)CO)c1F (stereo not shown) [Example 20, 3-[3-[2-[5-[(4,6-difluoro-1H-indol-5-yl)oxy]-2-fluoro-phenyl]-5-methyl-1,4,6,7-tetrahydroimidazo[4,5-c]pyridin-4-yl]-2-fluoro-phenyl]propane-1,2-diol] | B (4-8° C.)
CCOC(=O)C(C)Cc1cccc(C2NCCn3c2nc(-c2cc(Oc4c(F)cc5[nH]ccc5c4F)ccc2F)c3C)c1F (stereo not shown) [Example 10, ethyl 3-[3-[2-[5-[(4,6-difluoro-1H-indol-5-yl)oxy]-2-fluoro-phenyl]-3-methyl-5,6,7,8-tetrahydroimidazo[1,2-a]pyrazin-8-yl]-2-fluoro-phenyl]-2-methyl-propanoate] | C (≤4° C.)
CCOC(=O)CCc1cccc(C2c3nc(-c4cc(Oc5c(F)cc6[nH]ccc6c5S(C)(=O)=O)ccc4F)[nH]c3CCN2C)c1F (stereo not shown) [Example 13, ethyl 3-[2-fluoro-3-[2-[2-fluoro-5-[(6-fluoro-4-methylsulfonyl-1H-indol-5-yl)oxy]phenyl]-5-methyl-1,4,6,7-tetrahydroimidazo[4,5-c]pyridin-4-yl]phenyl]propanoate] | B (4-8° C.)
CN1CCc2nc(-c3cc(Oc4c(F)cc5[nH]ccc5c4F)ccc3F)[nH]c2[C@@H]1c1cccc(CCC(=O)O)c1F (single isomer, unassigned) [Example 6] | A (T ≥ 8° C.)
CS(=O)(=O)c1c(Oc2ccc(F)c(-c3nc4c([nH]3)CCN(CC(F)F)C4c3cccc(CCC(=O)O)c3F)c2)c(F)cc2[nH]ccc12 (stereo not shown) [Example 16, 3-[3-[5-(2,2-difluoroethyl)-2-[2-fluoro-5-[(6-fluoro-4-methylsulfonyl-1H-indol-5-yl)oxy]phenyl]-1,4,6,7-tetrahydroimidazo[4,5-c]pyridin-4-yl]-2-fluoro-phenyl]propanoic acid] | A (T ≥ 8° C.)
CC(Cc1cccc(C2c3nc(-c4cc(Oc5c(F)cc6[nH]ccc6c5S(C)(=O)=O)ccc4F)[nH]c3CCN2C)c1F)C(=O)O (stereo not shown) [Example 7, 3-[2-fluoro-3-[2-[2-fluoro-5-[(6-fluoro-4-methylsulfonyl-1H-indol-5-yl)oxy]phenyl]-5-methyl-1,4,6,7-tetrahydroimidazo[4,5-c]pyridin-4-yl]phenyl]-2-methyl-propanoic acid] | A (T ≥ 8° C.)
